Measurements: patent publication US8574563B2 (Bristol-Myers Squibb Company, priority 2006, dated 2013)
Read-outs that look alike come from different tables or passages of the source.

System: HCV 1b-377-neo replicon cells
Assay: HCV replicon assay, HCV 1b-377-neo replicon cells (1b FRET)
Format: cell-based, Hepatitis C virus genotype 1b
Settings: HCV 1b-377-neo replicon cells, HCV 1b genotype, read-out: EC50 range against HCV 1b (Table 2, Range)
In short: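 FRET-based replicon assay in HCV 1b-377-neo cells, including a comparison line carrying the NS5A Y2065H mutation that confers resistance to a reference compound.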

COC(=O)N[C@@H](C(=O)N1CCC[C@H]1c1ncc(-c2ccc(-c3ccc(-c4cnc([C@@H]5CCCN5C(=O)[C@@H]5Cc6ccc(O)cc6CN5)[nH]4)cc3)cc2)[nH]1)c1ccccc1 [Example 84-20, methyl ((1R)-2-((2S)-2-(5-(4′-(2-((2S)-1-(((3S)-7-hydroxy-1,2,3,4-tetrahydro-3-isoquinolinyl)carbonyl)-2-pyrrolidinyl)-1H-imidazol-5-yl)-4-biphenylyl)-1H-imidazol-2-yl)-1-pyrrolidinyl)-2-oxo-1-phenylethyl)carbamate]
EC50 (Hepatitis C virus): 1 to 99 nM

COC(=O)N[C@@H](C(=O)N1CCC[C@H]1c1ncc(-c2ccc(-c3ccc(-c4cnc([C@@H]5CCCN5C(=O)CCN5CCCCC5)[nH]4)cc3)cc2)[nH]1)c1ccccc1 [Example 84-24, methyl ((1R)-2-oxo-1-phenyl-2-((2S)-2-(5-(4′-(2-((2S)-1-(3-(1-piperidinyl)propanoyl)-2-pyrrolidinyl)-1H-imidazol-5-yl)-4-biphenylyl)-1H-imidazol-2-yl)-1-pyrrolidinyl)ethyl)carbamate]
EC50 (Hepatitis C virus): 0.001 to 0.999 nM

COC(=O)N[C@@H](C(=O)N1CCC[C@H]1c1ncc(-c2ccc(-c3ccc(-c4cnc([C@@H]5CCCN5C(=O)COc5ccccc5OC)[nH]4)cc3)cc2)[nH]1)c1ccccc1 [Example 84-26, methyl ((1R)-2-((2S)-2-(5-(4′-(2-((2S)-1-((2-methoxyphenoxy)acetyl)-2-pyrrolidinyl)-1H-imidazol-5-yl)-4-biphenylyl)-1H-imidazol-2-yl)-1-pyrrolidinyl)-2-oxo-1-phenylethyl)carbamate]
EC50 (Hepatitis C virus): 0.001 to 0.999 nM

COC(=O)N[C@@H](C(=O)N1CCC[C@H]1c1ncc(-c2ccc(-c3ccc(-c4cnc([C@@H]5CCCN5C(=O)C5CN(C(=O)OC(C)(C)C)C5)[nH]4)cc3)cc2)[nH]1)c1ccccc1 [Example 84-27, tert-butyl 3-(((2S)-2-(5-(4′-(2-((2S)-1-((2R)-2-((methoxycarbonyl)amino)-2-phenylacetyl)-2-pyrrolidinyl)-1H-imidazol-5-yl)-4-biphenylyl)-1H-imidazol-2-yl)-1-pyrrolidinyl)carbonyl)-1-azetidinecarboxylate]
EC50 (Hepatitis C virus): 0.001 to 0.999 nM

COC(=O)N[C@@H](C(=O)N1CCC[C@H]1c1ncc(-c2ccc(-c3ccc(-c4cnc([C@@H]5CCCN5C(=O)[C@H]5CCN(Cc6ccccc6)C5)[nH]4)cc3)cc2)[nH]1)c1ccccc1 [Example 84-28]
EC50: 0.001 to 0.999 nM

COC(=O)N[C@@H](C(=O)N1CCC[C@H]1c1ncc(-c2ccc(-c3ccc(-c4cnc([C@@H]5CCCN5C(=O)C5(C(F)(F)F)CC5)[nH]4)cc3)cc2)[nH]1)c1ccccc1 [Example 84-32, methyl ((1R)-2-oxo-1-phenyl-2-((2S)-2-(5-(4′-(2-((2S)-1-((1-(trifluoromethyl)cyclopropyl)carbonyl)-2-pyrrolidinyl)-1H-imidazol-5-yl)-4-biphenylyl)-1H-imidazol-2-yl)-1-pyrrolidinyl)ethyl)carbamate]
EC50 (Hepatitis C virus): 0.001 to 0.999 nM

COC(=O)N[C@@H](C(=O)N1CCC[C@H]1c1ncc(-c2ccc(-c3ccc(-c4cnc([C@@H]5CCCN5C(=O)c5ccc(N(C)C)cc5)[nH]4)cc3)cc2)[nH]1)c1ccccc1 [Example 84-33, methyl ((1R)-2-((2S)-2-(5-(4′-(2-((2S)-1-(4-(dimethylamino)benzoyl)-2-pyrrolidinyl)-1H-imidazol-5-yl)-4-biphenylyl)-1H-imidazol-2-yl)-1-pyrrolidinyl)-2-oxo-1-phenylethyl)carbamate]
EC50 (Hepatitis C virus): 0.001 to 0.999 nM

COC(=O)N[C@@H](C(=O)N1CCC[C@H]1c1ncc(-c2ccc(-c3ccc(-c4cnc([C@@H]5CCCN5C(=O)[C@H]5CC[C@@H](NC(=O)OC(C)(C)C)CC5)[nH]4)cc3)cc2)[nH]1)c1ccccc1 [Example 84-35, methyl ((1R)-2-((2S)-2-(5-(4′-(2-((2S)-1-((cis-4-((tert-butoxycarbonyl)amino)cyclohexyl)carbonyl)-2-pyrrolidinyl)-1H-imidazol-5-yl)-4-biphenylyl)-1H-imidazol-2-yl)-1-pyrrolidinyl)-2-oxo-1-phenylethyl)carbamate]
EC50 (Hepatitis C virus): 0.001 to 0.999 nM

COC(=O)N[C@@H](C(=O)N1CCC[C@H]1c1ncc(-c2ccc(-c3ccc(-c4cnc([C@@H]5CCCN5C(=O)C5CCN(C(=O)OC(C)(C)C)CC5)[nH]4)cc3)cc2)[nH]1)c1ccccc1 [Example 84-36, tert-butyl 4-(((2S)-2-(5-(4′-(2-((2S)-1-((2R)-2-((methoxycarbonyl)amino)-2-phenylacetyl)-2-pyrrolidinyl)-1H-imidazol-5-yl)-4-biphenylyl)-1H-imidazol-2-yl)-1-pyrrolidinyl)carbonyl)-1-piperidinecarboxylate]
EC50 (Hepatitis C virus): 0.001 to 0.999 nM

COC(=O)N[C@@H](C(=O)N1CCC[C@H]1c1ncc(-c2ccc(-c3ccc(-c4cnc([C@@H]5CCCN5C(=O)C(c5ccccc5)c5ccccc5)[nH]4)cc3)cc2)[nH]1)c1ccccc1 [Example 84-38, methyl ((1R)-2-((2S)-2-(5-(4′-(2-((2S)-1-(diphenylacetyl)-2-pyrrolidinyl)-1H-imidazol-5-yl)-4-biphenylyl)-1H-imidazol-2-yl)-1-pyrrolidinyl)-2-oxo-1-phenylethyl)carbamate]
EC50 (Hepatitis C virus): 0.001 to 0.999 nM

COC(=O)N[C@@H](C(=O)N1CCC[C@H]1c1ncc(-c2ccc(-c3ccc(-c4cnc([C@@H]5CCCN5C(=O)CCC(C)=O)[nH]4)cc3)cc2)[nH]1)c1ccccc1 [Example 84-39, methyl ((1R)-2-oxo-2-((2S)-2-(5-(4′-(2-((2S)-1-(4-oxopentanoyl)-2-pyrrolidinyl)-1H-imidazol-5-yl)-4-biphenylyl)-1H-imidazol-2-yl)-1-pyrrolidinyl)-1-phenylethyl)carbamate]
EC50 (Hepatitis C virus): 0.001 to 0.999 nM

COC(=O)N[C@@H](C(=O)N1CCC[C@H]1c1ncc(-c2ccc(-c3ccc(-c4cnc([C@@H]5CCCN5C(=O)c5ccccc5F)[nH]4)cc3)cc2)[nH]1)c1ccccc1 [Example 84-40, methyl ((1R)-2-((2S)-2-(5-(4′-(2-((2S)-1-(2-fluorobenzoyl)-2-pyrrolidinyl)-1H-imidazol-5-yl)-4-biphenylyl)-1H-imidazol-2-yl)-1-pyrrolidinyl)-2-oxo-1-phenylethyl)carbamate]
EC50 (Hepatitis C virus): 0.001 to 0.999 nM

COC(=O)N[C@@H](C(=O)N1CCC[C@H]1c1ncc(-c2ccc(-c3ccc(-c4cnc([C@@H]5CCCN5C(=O)c5cscn5)[nH]4)cc3)cc2)[nH]1)c1ccccc1 [Example 84-44, methyl ((1R)-2-oxo-1-phenyl-2-((2S)-2-(5-(4′-(2-((2S)-1-(1,3-thiazol-4-ylcarbonyl)-2-pyrrolidinyl)-1H-imidazol-5-yl)-4-biphenylyl)-1H-imidazol-2-yl)-1-pyrrolidinyl)ethyl)carbamate]
EC50 (Hepatitis C virus): 0.001 to 0.999 nM

COC(=O)N[C@@H](C(=O)N1CCC[C@H]1c1ncc(-c2ccc(-c3ccc(-c4cnc([C@@H]5CCCN5C(=O)C(c5cccs5)N(C)C)[nH]4)cc3)cc2)[nH]1)c1ccccc1 (stereo partly drawn) [Example 84-46, methyl ((1R)-2-((2S)-2-(5-(4′-(2-((2S)-1-((dimethylamino)(2-thienyl)acetyl)-2-pyrrolidinyl)-1H-imidazol-5-yl)-4-biphenylyl)-1H-imidazol-2-yl)-1-pyrrolidinyl)-2-oxo-1-phenylethyl)carbamate]
EC50 (Hepatitis C virus): 0.001 to 0.999 nM

COC(=O)N[C@@H](C(=O)N1CCC[C@H]1c1ncc(-c2ccc(-c3ccc(-c4cnc([C@@H]5CCCN5C(=O)C(c5ccsc5)N(C)C)[nH]4)cc3)cc2)[nH]1)c1ccccc1 (stereo partly drawn) [Example 84-47, methyl ((1R)-2-((2S)-2-(5-(4′-(2-((2S)-1-((dimethylamino)(3-thienyl)acetyl)-2-pyrrolidinyl)-1H-imidazol-5-yl)-4-biphenylyl)-1H-imidazol-2-yl)-1-pyrrolidinyl)-2-oxo-1-phenylethyl)carbamate]
EC50 (Hepatitis C virus): 0.001 to 0.999 nM

COC(=O)N[C@@H](C(=O)N1CCC[C@H]1c1ncc(-c2ccc(-c3ccc(-c4cnc([C@@H]5CCCN5C(=O)C(c5csc(C)n5)N(C)C)[nH]4)cc3)cc2)[nH]1)c1ccccc1 (stereo partly drawn) [Example 84-48, methyl ((1R)-2-((2S)-2-(5-(4′-(2-((2S)-1-((dimethylamino)(2-methyl-1,3-thiazol-4-yl)acetyl)-2-pyrrolidinyl)-1H-imidazol-5-yl)-4-biphenylyl)-1H-imidazol-2-yl)-1-pyrrolidinyl)-2-oxo-1-phenylethyl)carbamate]
EC50 (Hepatitis C virus): 0.001 to 0.999 nM

COC(=O)N[C@@H](C(=O)N1CCC[C@H]1c1ncc(-c2ccc(-c3ccc(-c4cnc([C@@H]5CCCN5C(=O)C(c5noc6ccccc56)N(C)C)[nH]4)cc3)cc2)[nH]1)c1ccccc1 (stereo partly drawn) [Example 84-49, methyl ((1R)-2-((2S)-2-(5-(4′-(2-((2S)-1-(1,2-benzisoxazol-3-yl(dimethylamino)acetyl)-2-pyrrolidinyl)-1H-imidazol-5-yl)-4-biphenylyl)-1H-imidazol-2-yl)-1-pyrrolidinyl)-2-oxo-1-phenylethyl)carbamate]
EC50 (Hepatitis C virus): 0.001 to 0.999 nM

COC(=O)NC(C(=O)N1CCCC1c1ncc(-c2ccc(-c3ccc(-c4cnc(C5CCCN5C(=O)C(c5csc6ccccc56)N(C)C)[nH]4)cc3)cc2)[nH]1)c1ccccc1 [Example 84-50, methyl ((1R)-2-((2S)-2-(5-(4′-(2-((2S)-1-(1-benzothiophen-3-yl(dimethylamino)acetyl)-2-pyrrolidinyl)-1H-imidazol-5-yl)-4-biphenylyl)-1H-imidazol-2-yl)-1-pyrrolidinyl)-2-oxo-1-phenylethyl)carbamate]
EC50: 0.001 to 0.999 nM

COC(=O)N[C@@H](C(=O)N1CCC[C@H]1c1ncc(-c2ccc(-c3ccc(-c4cnc([C@@H]5CCCN5C(=O)C(c5cccc6ccccc56)N(C)C)[nH]4)cc3)cc2)[nH]1)c1ccccc1 (stereo partly drawn) [Example 84-51, methyl ((1R)-2-((2S)-2-(5-(4′-(2-((2S)-1-((dimethylamino)(1-naphthyl)acetyl)-2-pyrrolidinyl)-1H-imidazol-5-yl)-4-biphenylyl)-1H-imidazol-2-yl)-1-pyrrolidinyl)-2-oxo-1-phenylethyl)carbamate]
EC50 (Hepatitis C virus): 0.001 to 0.999 nM
